Measurements taken from patent publication US5475029A, “Farnesyl compounds as cholesterol lowering agents” (The Board of Trustees of the Leland Stanford Junior …, priority 1993, dated 1995).

System: HMG-CoA reductase
Experiment: HMG-CoA reductase degradation rate (pulse-chase)
Type: cell-based
Conditions: 10 μg/ml during chase; untreated 9.3 hours
Experimental: Measurement of HMGal and HMG-CoA Reductase Degradation Rates Cells grown in 60×15 mm dishes were washed once with ice-cold PBS and starved for 1 hour in 1 ml of methionine-free MEM supplemented with 5% LPS, 250 μg/ml of active geneticin, 10 μM compactin, and 0.1 mM mevalonate. These cells were radio-labeled for 2 hours in 300 μl of the methionine-free starvation medium containing 100 μCi of Tran^35 S-label (>1,000 Ci/mmol). Cells were incubated in an MEM-based chase medium containing 2 mM methionine, 5% LPS, 250 μg/ml of active geneticin, 10 μM compactin, and 0.1 mM mevalonate. During the chase period, some plates also had either 20 mM mevalonate, 10 μg/ml farnesyl acetate or 10 μg/ml ethyl farnesyl ether added to them as indicated in the figure legend. Following the chase, cells were washed, lysed and the HMGal and HMG-CoA reductase proteins were immunoprecipitated, subjected to SDS-PAGE and quantified.
In order to test whether the farnesyl compounds impact degradation, the rates of degradation for HMGal, HMG-CoA reductase, and total cellular protein were measured in the presence and absence of 10 μg/ml farnesyl acetate and ethyl farnesyl ether.

CC(=O)OCC=C(C)CCC=C(C)CCC=C(C)C [farnesyl acetate]
half-life of HMG-CoA reductase: 3.6 h
reduction of the half-life of HMG-CoA reductase: 60%
